Laboratory results as given in US10806732B2, “Stable anti-neoplastic pharmaceutical composition comprising temozolomide and method of preparing the composition” (DOUBLE BOND PHARMACEUTICAL AB, priority 2016, dated 2020).

Legend:
[1] = oral administration; cited from earlier work
[2] = Stability of TMZ in dextran phosphate gel of pH 7.2-7.4 (prior art BY 11838 C1); format: physicochemical
Text: BY 11838 C1 discloses a combined treatment method for malignant brain tumors. The method comprises surgical excision of the tumor tissue followed by application of TMZ comprised by high substituted dextran phosphate gel of pH 7.2-7.4. The dry weight ratio of TMZ/high substituted dextran phosphate in the preparation is 0.03:1.0. The freeze-dried gel is reconstituted by the addition of sterile water and pH adjusted prior to use, then applied to the wound surface. […] In addition, the structure of highly substituted dextran phosphate contains a large number of di- and tri-substituted phosphoric acid groups, which provide additional cross-linking of macromolecules, which reduces the ability to absorb water and limits the amount of TMZ to 30 mg/g in the gel of highly substituted dextran phosphate. The low concentration of TMZ in the composition implies that the volume must be increased to administrate higher dose of the substance, i.e., the prodrug TMZ, and thus also the amount highly substituted dextran phosphates administered is increased. A 2- or 3-fold increase in the amount of highly substituted dextran phosphates can lead to undesirable reactions associated with the duration of the biodegradation process. […]

For `Cn1nnc2c(C(N)=O)ncn2c1=O` [TMZ, 4-methyl-5-oxo-2,3,4,6,8-pentazabicyclo[4.3.0]nona-2,7,9-triene-9-carboxamide], which half-life [1] is on record?
Its half-life is 1.8 h.

And the “time to peak plasma concentration” value [1]?
The value was 0.7 h.

And the “stability of TMZ (hydrolysis to AIC)” value [2]?
Its value is “decomposes”.
